Data: EP0908457B1, “3-(1,2-benzisothiazol- and isoxazol-5-Y1)-2,4(1H,3H)-pyrimidinedione or thione and 3-(1,2-benzisothiazol- and isoxazol-5-y1)-4(3H)-pyrimidinone or thione herbicidal agents” (BASF AKTIENGESELLSCHAFT, priority 1997, dated 1999)

Assays:
[1] = test system: Echinochloa oryzoides (Ard.) Fritsch.; test: Preemergence weed control under flooded paddy conditions, ECHORC (Watergrass (Calif.)); type: in vivo; details: preemergence, flooded paddy; further: meaning of each grade not given here
Cyperus iria = test: Preemergence weed control under flooded paddy conditions, CYPIR (Rice Flatsedge); type: in vivo; details: preemergence, flooded paddy; further: meaning of each grade not given here
[2] = test system: Cyperus serotinus, Rottb.; test: Preemergence weed control under flooded paddy conditions, CYPSE (Flatsedge); type: in vivo; details: preemergence; further: meaning of each grade not given here
[3] = test system: Monochoria vaginalis, Presl.; test: Preemergence weed control under flooded paddy conditions, MOOVA (Monochoria); type: in vivo; details: preemergence, flooded paddy; further: meaning of each grade not given here
Sagittaria pygmaea, L. = test: Preemergence weed control under flooded paddy conditions, SAGPY (Arrowhead (Pygmaea)); type: in vivo; details: preemergence, flooded paddy; further: meaning of each grade not given here
[4] = test system: Oryza sativa, (L.) Tebonnet; test: Rice tolerance to post-transplant applications under flooded paddy conditions (Example 187), ORYSAT (Rice, Tebonnet); on herbicidal effect rating ORYSAT: meaning of each grade not given here
[5] = 0.0313 kg/ha, rated three to four weeks after treatment
[6] = 0.0625 kg/ha, rated three to four weeks after treatment
[7] = 0.1250 kg/ha, rated three to four weeks after treatment
[8] = 0.2500 kg/ha, rated three to four weeks after treatment
[9] = Rate 0.0320 kg/ha, rated three to four weeks after treatment
[10] = Rate 0.0620 kg/ha, rated three to four weeks after treatment
[11] = Rate 0.1250 kg/ha, rated three to four weeks after treatment
[12] = Rate 0.2500 kg/ha, rated three to four weeks after treatment
[13] = Rate 0.0320 kg/ha, rated 3-4 weeks after treatment
[14] = Rate 0.0620 kg/ha, rated 3-4 weeks after treatment
[15] = Rate 0.1250 kg/ha, rated 3-4 weeks after treatment
[16] = Rate 0.2500 kg/ha, rated 3-4 weeks after treatment
[17] = Rate 0.5000 kg/ha, rated 3-4 weeks after treatment

In the case of `Cn1c(C(F)(F)F)cc(=O)n(-c2ccc3onc(-c4ccccc4)c3c2)c1=O` [Example 25, 1-Methyl-3-(3-phenyl-1,2-benzisoxazol-5-yl)-6-(trifluoromethyl)-2,4(1H,3H)-pyrimidinedione], the “herbicidal effect rating, ECHORC” value [1, 5] is reported as 7.0, the “herbicidal effect rating, ECHORC” value [1, 6] is reported as 9.0 and the “herbicidal effect rating, ECHORC” value [1, 7] is reported as 9.0. The “herbicidal effect rating, ECHORC” value [1, 8] was 9.0, the “herbicidal effect rating, CYPIR” value (Cyperus iria; [5]) was 9.0 and the “herbicidal effect rating, CYPIR” value (Cyperus iria; [6]) was 9.0. The “herbicidal effect rating, CYPIR” value (Cyperus iria; [7]) was 9.0, the “herbicidal effect rating, CYPIR” value (Cyperus iria; [8]) was 9.0 and the “herbicidal effect rating, CYPSE” value [2, 5] was 0.0. For the same compound, the “herbicidal effect rating, CYPSE” value [2, 6] was 2.0, the “herbicidal effect rating, CYPSE” value [2, 7] was 7.0 and the “herbicidal effect rating, CYPSE” value [2, 8] was 8.0. For the same compound, the “herbicidal effect rating, MOOVA” value [3, 5] was 9.0, the “herbicidal effect rating, MOOVA” value [3, 6] was 9.0 and the “herbicidal effect rating, MOOVA” value [3, 7] was 9.0. The “herbicidal effect rating, MOOVA” value [3, 8] was 9.0, the “herbicidal effect rating, SAGPY” value (Sagittaria pygmaea, L.; [5]) was 0.0 and the “herbicidal effect rating, SAGPY” value (Sagittaria pygmaea, L.; [6]) was 0.0. For the same compound, the “herbicidal effect rating, SAGPY” value (Sagittaria pygmaea, L.; [7]) was 1.0, the “herbicidal effect rating, SAGPY” value (Sagittaria pygmaea, L.; [8]) was 4.0 and the “herbicidal effect rating, ORYSAT (rice tolerance)” value (shortened to “herbicidal effect rating, ORYSAT”) [4, 5] was 4.0. The “herbicidal effect rating, ORYSAT” value [4, 6] was 6.0, the “herbicidal effect rating, ORYSAT” value [4, 7] was 7.0 and the “herbicidal effect rating, ORYSAT” value [4, 8] was 7.0.
In the case of `CC(=O)NCCOC(=O)c1nsc2ccc(-n3c(=O)cc(C(F)(F)F)n(C)c3=O)cc12` [Example 387, 1,2-Benzisothiazole-3-carboxylic acid, 5-[3,6-dihydro-3-methyl-2,6-dioxo-4-(trifluoromethyl)-1(2H)-pyrimidinyl]-, 2-acetamidoethyl ester], the “herbicidal effect rating, ECHORC” value [1, 9] is reported as 0.0, the “herbicidal effect rating, ECHORC” value [1, 10] is reported as 0.0 and the “herbicidal effect rating, ECHORC” value [1, 11] is reported as 0.0. The “herbicidal effect rating, ECHORC” value [1, 12] was 3.0, the “herbicidal effect rating, CYPIR” value (Cyperus iria; [9]) was 0.0 and the “herbicidal effect rating, CYPIR” value (Cyperus iria; [10]) was 5.0. For the same compound, the “herbicidal effect rating, CYPIR” value (Cyperus iria; [11]) was 6.0, the “herbicidal effect rating, CYPIR” value (Cyperus iria; [12]) was 7.0 and the “herbicidal effect rating, CYPSE” value [2, 9] was 2.0. For the same compound, the “herbicidal effect rating, CYPSE” value [2, 10] was 5.0, the “herbicidal effect rating, CYPSE” value [2, 11] was 5.0 and the “herbicidal effect rating, CYPSE” value [2, 12] was 5.0. The “herbicidal effect rating, MOOVA” value [3, 9] was 4.0, the “herbicidal effect rating, MOOVA” value [3, 10] was 9.0 and the “herbicidal effect rating, MOOVA” value [3, 11] was 9.0. For the same compound, the “herbicidal effect rating, MOOVA” value [3, 12] was 9.0, the “herbicidal effect rating, SAGPY” value (Sagittaria pygmaea, L.; [9]) was 3.0 and the “herbicidal effect rating, SAGPY” value (Sagittaria pygmaea, L.; [10]) was 4.0. For the same compound, the “herbicidal effect rating, SAGPY” value (Sagittaria pygmaea, L.; [11]) was 5.0, the “herbicidal effect rating, SAGPY” value (Sagittaria pygmaea, L.; [12]) was 6.0 and the “herbicidal effect rating ORYSAT” value [4, 9] was 0.0. For the same compound, the “herbicidal effect rating ORYSAT” value [4, 10] was 0.0, the “herbicidal effect rating ORYSAT” value [4, 11] was 2.0 and the “herbicidal effect rating ORYSAT” value [4, 12] was 2.0.
For `CCS(=O)(=O)NC(=O)COc1ccccc1-c1nsc2ccc(-n3c(=O)cc(C(F)(F)F)n(C)c3=O)cc12` [Example 558, Acetamide, 2-{o-{5-[3,6-dihydro-3-methyl-2,6-dioxo-4-(trifluoromethyl)-1(2H)-pyrimidinyl]-1,2-benzisothiazol-3-yl}phenoxy}-N-(ethylsulfonyl)-], the “herbicidal effect rating, ECHORC” value [1, 13] was 4.3, the “herbicidal effect rating, ECHORC” value [1, 14] was 4.7 and the “herbicidal effect rating, ECHORC” value [1, 15] was 7.0. The “herbicidal effect rating, ECHORC” value [1, 16] was 9.0, the “herbicidal effect rating, ECHORC” value [1, 17] was 9.0 and the “herbicidal effect rating, CYPIR” value (Cyperus iria; [13]) was 2.0. The “herbicidal effect rating, CYPIR” value (Cyperus iria; [14]) was 6.0, the “herbicidal effect rating, CYPIR” value (Cyperus iria; [15]) was 8.0 and the “herbicidal effect rating, CYPIR” value (Cyperus iria; [16]) was 9.0. For the same compound, the “herbicidal effect rating, CYPIR” value (Cyperus iria; [17]) was 9.0, the “herbicidal effect rating, CYPSE” value [2, 15] was 9.0 and the “herbicidal effect rating, CYPSE” value [2, 16] was 9.0. The “herbicidal effect rating, CYPSE” value [2, 17] was 9.0, the “herbicidal effect rating, MOOVA” value [3, 13] was 9.0 and the “herbicidal effect rating, MOOVA” value [3, 14] was 9.0. For the same compound, the “herbicidal effect rating, MOOVA” value [3, 15] was 9.0, the “herbicidal effect rating, MOOVA” value [3, 16] was 9.0 and the “herbicidal effect rating, MOOVA” value [3, 17] was 9.0. For the same compound, the “herbicidal effect rating, SAGPY” value (Sagittaria pygmaea, L.; [13]) was 2.0, the “herbicidal effect rating, SAGPY” value (Sagittaria pygmaea, L.; [14]) was 2.0 and the “herbicidal effect rating, SAGPY” value (Sagittaria pygmaea, L.; [15]) was 4.0. The “herbicidal effect rating, SAGPY” value (Sagittaria pygmaea, L.; [16]) was 8.0, the “herbicidal effect rating, SAGPY” value (Sagittaria pygmaea, L.; [17]) was 4.0 and the “herbicidal effect rating ORYSAT” value [4, 13] was 4.0. For the same compound, the “herbicidal effect rating ORYSAT” value [4, 14] was 7.0, the “herbicidal effect rating ORYSAT” value [4, 15] was 9.0 and the “herbicidal effect rating ORYSAT” value [4, 16] was 9.0. For the same compound, the “herbicidal effect rating ORYSAT” value [4, 17] was 9.0.
For `C#CCC(C#N)(CC#C)c1nsc2ccc(-n3c(=O)cc(C(F)(F)F)n(C)c3=O)cc12` [Example 581, 1,2-Benzisothiazole-3-acetonitrile, 5-[3,6-dihydro-3-methyl-2,6-dioxo-4-(trifluoromethyl)-1(2H)-pyrimidinyl]-alpha,alpha-di-2-propynyl-], the “herbicidal effect rating, ECHORC” value [1, 9] was 6.0, the “herbicidal effect rating, ECHORC” value [1, 10] was 8.5 and the “herbicidal effect rating, ECHORC” value [1, 11] was 9.0. For the same compound, the “herbicidal effect rating, ECHORC” value [1, 12] was 9.0, the “herbicidal effect rating, CYPIR” value (Cyperus iria; [9]) was 3.0 and the “herbicidal effect rating, CYPIR” value (Cyperus iria; [10]) was 4.5. The “herbicidal effect rating, CYPIR” value (Cyperus iria; [11]) was 9.0, the “herbicidal effect rating, CYPIR” value (Cyperus iria; [12]) was 9.0 and the “herbicidal effect rating, CYPSE” value [2, 9] was 1.0. For the same compound, the “herbicidal effect rating, CYPSE” value [2, 10] was 1.5, the “herbicidal effect rating, CYPSE” value [2, 11] was 6.0 and the “herbicidal effect rating, CYPSE” value [2, 12] was 8.0. The “herbicidal effect rating, MOOVA” value [3, 9] was 4.5, the “herbicidal effect rating, MOOVA” value [3, 10] was 4.5 and the “herbicidal effect rating, MOOVA” value [3, 11] was 9.0. For the same compound, the “herbicidal effect rating, MOOVA” value [3, 12] was 9.0, the “herbicidal effect rating, SAGPY” value (Sagittaria pygmaea, L.; [9]) was 3.0 and the “herbicidal effect rating, SAGPY” value (Sagittaria pygmaea, L.; [10]) was 9.0. For the same compound, the “herbicidal effect rating, SAGPY” value (Sagittaria pygmaea, L.; [11]) was 9.0, the “herbicidal effect rating, SAGPY” value (Sagittaria pygmaea, L.; [12]) was 9.0 and the “herbicidal effect rating ORYSAT” value [4, 9] was 1.5. For the same compound, the “herbicidal effect rating ORYSAT” value [4, 10] was 3.5, the “herbicidal effect rating ORYSAT” value [4, 11] was 6.0 and the “herbicidal effect rating ORYSAT” value [4, 12] was 7.0.
With `CCCS(=O)(=O)NC(=O)C(C)Oc1ccc(C)cc1-c1nsc2ccc(-n3c(=O)cc(C(F)(F)F)n(C)c3=O)cc12` (stereo not shown) [Example 569, Propionamide, 2-{{2-{5-[3,6-dihydro-3-methyl-2,6-dioxo-4-(trifluoromethyl)-1(2H)-pyrimidinyl]-1,2-benzisothiazol-3-yl}-p-tolyl}oxy}-N-(propyl-sulfonyl)-] the “herbicidal effect rating, ECHORC” value [1, 9] was 2.0, the “herbicidal effect rating, ECHORC” value [1, 10] was 4.0 and the “herbicidal effect rating, ECHORC” value [1, 11] was 5.0. For the same compound, the “herbicidal effect rating, ECHORC” value [1, 12] was 5.0, the “herbicidal effect rating, CYPIR” value (Cyperus iria; [9]) was 0.0 and the “herbicidal effect rating, CYPIR” value (Cyperus iria; [10]) was 0.0. The “herbicidal effect rating, CYPIR” value (Cyperus iria; [11]) was 0.0, the “herbicidal effect rating, CYPIR” value (Cyperus iria; [12]) was 0.0 and the “herbicidal effect rating, CYPSE” value [2, 9] was 0.0. The “herbicidal effect rating, CYPSE” value [2, 10] was 0.0, the “herbicidal effect rating, CYPSE” value [2, 11] was 0.0 and the “herbicidal effect rating, CYPSE” value [2, 12] was 0.0. For the same compound, the “herbicidal effect rating, MOOVA” value [3, 9] was 4.0, the “herbicidal effect rating, MOOVA” value [3, 10] was 6.0 and the “herbicidal effect rating, MOOVA” value [3, 11] was 6.0. The “herbicidal effect rating, MOOVA” value [3, 12] was 6.0, the “herbicidal effect rating, SAGPY” value (Sagittaria pygmaea, L.; [9]) was 0.0 and the “herbicidal effect rating, SAGPY” value (Sagittaria pygmaea, L.; [10]) was 0.0. The “herbicidal effect rating, SAGPY” value (Sagittaria pygmaea, L.; [11]) was 0.0, the “herbicidal effect rating, SAGPY” value (Sagittaria pygmaea, L.; [12]) was 9.0 and the “herbicidal effect rating ORYSAT” value [4, 9] was 0.0. For the same compound, the “herbicidal effect rating ORYSAT” value [4, 10] was 0.0, the “herbicidal effect rating ORYSAT” value [4, 11] was 0.0 and the “herbicidal effect rating ORYSAT” value [4, 12] was 1.0.
